Experiments:
Mus musculus [1] = assay: Neurotoxicity against Mus musculus MFI (mouse) assessed as irritability at 110 mg/kg, ip; format: toxicity, organism-based; parameters: dose 110 mg/kg, route intraperitoneal; conditions: in vivo
Mus musculus [2] = assay: Neurotoxicity against Mus musculus MFI (mouse) assessed as tremors at 75 mg/kg, ip; format: toxicity, organism-based; parameters: dose 75 mg/kg, route intraperitoneal; conditions: in vivo
Mus musculus [3] = assay: Neurotoxicity against Mus musculus MFI (mouse) assessed as hair erection at 40 mg/kg, ip; format: toxicity, organism-based; parameters: dose 40 mg/kg, route intraperitoneal; conditions: in vivo
Mus musculus [4] = assay: Neurotoxicity against Mus musculus MFI (mouse) assessed as tremors at 40 mg/kg, ip; format: toxicity, organism-based; parameters: dose 40 mg/kg, route intraperitoneal; conditions: in vivo
Mus musculus [5] = assay: Neurotoxicity against Mus musculus MFI (mouse) assessed as eye protrusion at 75 mg/kg, ip; format: toxicity, organism-based; parameters: dose 75 mg/kg, route intraperitoneal; conditions: in vivo
Mus musculus [6] = assay: Neurotoxicity against Mus musculus MFI (mouse) assessed as eye protrusion at 40 mg/kg, ip; format: toxicity, organism-based; parameters: dose 40 mg/kg, route intraperitoneal; conditions: in vivo
Mus musculus [7] = assay: Neurotoxicity against Mus musculus MFI (mouse) assessed as tail erection at 40 mg/kg, ip; format: toxicity, organism-based; parameters: dose 40 mg/kg, route intraperitoneal; conditions: in vivo
Mus musculus [8] = assay: Neurotoxicity against Mus musculus MFI (mouse) assessed as irritability at 40 mg/kg, ip; format: toxicity, organism-based; parameters: dose 40 mg/kg, route intraperitoneal; conditions: in vivo
Mus musculus [9] = assay: Neurotoxicity against Mus musculus MFI (mouse) assessed as muscle twitching at 40 mg/kg, ip; format: toxicity, organism-based, Muscle tissue; parameters: dose 40 mg/kg, route intraperitoneal; conditions: in vivo
Mus musculus [10] = assay: Neurotoxicity against Mus musculus MFI (mouse) assessed as excitation at 75 mg/kg, ip; format: toxicity, organism-based; parameters: dose 75 mg/kg, route intraperitoneal; conditions: in vivo
Mus musculus [11] = assay: Neurotoxicity against Mus musculus MFI (mouse) assessed as epilepsy at 75 mg/kg, ip; format: toxicity, organism-based; parameters: dose 75 mg/kg, route intraperitoneal; conditions: in vivo
Mus musculus [12] = assay: Neurotoxicity against Mus musculus MFI (mouse) assessed as skeletal muscle incoordination at 75 mg/kg, ip; format: toxicity, organism-based, Muscle tissue; parameters: dose 75 mg/kg, route intraperitoneal; conditions: in vivo
Mus musculus [13] = assay: Neurotoxicity against Mus musculus MFI (mouse) assessed as muscle twitching at 110 mg/kg, ip; format: toxicity, organism-based, Muscle tissue; parameters: dose 110 mg/kg, route intraperitoneal; conditions: in vivo
Mus musculus [14] = assay: […] activity in Mus musculus MFI (mouse) assessed as inhibition of PBQ-induced writhing at 110 mg/kg, ip administered 1.5 hr prior to PBQ-challenge measured after 10 min relative to aspirin; format: functional; conditions: route intraperitoneal
Mus musculus [15] = assay: Neurotoxicity against Mus musculus MFI (mouse) assessed as hair erection at 110 mg/kg, ip; format: toxicity, organism-based; parameters: dose 110 mg/kg, route intraperitoneal; conditions: in vivo
Mus musculus [16] = assay: […] activity in Mus musculus MFI (mouse) assessed as inhibition of PBQ-induced writhing at 40 mg/kg, ip administered 1.5 hr prior to PBQ-challenge measured after 10 min relative to aspirin; format: functional; conditions: route intraperitoneal
Mus musculus [17] = assay: […] activity in ip dosed Mus musculus MFI (mouse) assessed as inhibition of PBQ-induced writhing administered 1.5 hr prior to PBQ-challenge measured after 10 min; format: functional; conditions: read-out: MED
Mus musculus [18] = assay: Neurotoxicity against Mus musculus MFI (mouse) assessed as effect on respiration at 110 mg/kg, ip; format: toxicity, organism-based; parameters: dose 110 mg/kg, route intraperitoneal; conditions: in vivo
Mus musculus [19] = assay: Neurotoxicity against Mus musculus MFI (mouse) assessed as irritability at 75 mg/kg, ip; format: toxicity, organism-based; parameters: dose 75 mg/kg, route intraperitoneal; conditions: in vivo
Mus musculus [20] = assay: Neurotoxicity against Mus musculus MFI (mouse) assessed as skeletal muscle incoordination at 40 mg/kg, ip; format: toxicity, organism-based, Muscle tissue; parameters: dose 40 mg/kg, route intraperitoneal; conditions: in vivo
Mus musculus [21] = assay: Neurotoxicity against Mus musculus MFI (mouse) assessed as tremors at 110 mg/kg, ip; format: toxicity, organism-based; parameters: dose 110 mg/kg, route intraperitoneal; conditions: in vivo
Mus musculus [22] = assay: Neurotoxicity against Mus musculus MFI (mouse) assessed as excitation at 110 mg/kg, ip; format: toxicity, organism-based; parameters: dose 110 mg/kg, route intraperitoneal; conditions: in vivo
Mus musculus [23] = assay: Neurotoxicity against Mus musculus MFI (mouse) assessed as skeletal muscle incoordination at 110 mg/kg, ip; format: toxicity, organism-based, Muscle tissue; parameters: dose 110 mg/kg, route intraperitoneal; conditions: in vivo
Mus musculus [24] = assay: […] activity in Mus musculus MFI (mouse) assessed as inhibition of PBQ-induced writhing at 75 mg/kg, ip administered 1.5 hr prior to PBQ-challenge measured after 10 min relative to aspirin; format: functional; conditions: route intraperitoneal
Mus musculus [25] = assay: Neurotoxicity against Mus musculus MFI (mouse) assessed as muscle twitching at 75 mg/kg, ip; format: toxicity, organism-based, Muscle tissue; parameters: dose 75 mg/kg, route intraperitoneal; conditions: in vivo
Mus musculus [26] = assay: Neurotoxicity against Mus musculus MFI (mouse) assessed as tail erection at 110 mg/kg, ip; format: toxicity, organism-based; parameters: dose 110 mg/kg, route intraperitoneal; conditions: in vivo
Mus musculus [27] = assay: Neurotoxicity against Mus musculus MFI (mouse) assessed as excitation at 40 mg/kg, ip; format: toxicity, organism-based; parameters: dose 40 mg/kg, route intraperitoneal; conditions: in vivo
Mus musculus [28] = assay: Neurotoxicity in ip dosed Mus musculus MFI (mouse); format: toxicity, organism-based; conditions: in vivo
Mus musculus [29] = assay: Neurotoxicity against Mus musculus MFI (mouse) assessed as effect on respiration at 75 mg/kg, ip; format: toxicity, organism-based; parameters: dose 75 mg/kg, route intraperitoneal; conditions: in vivo
Mus musculus [30] = assay: Neurotoxicity against Mus musculus MFI (mouse) assessed as eye protrusion at 110 mg/kg, ip; format: toxicity, organism-based; parameters: dose 110 mg/kg, route intraperitoneal; conditions: in vivo
Mus musculus [31] = assay: Neurotoxicity against Mus musculus MFI (mouse) assessed as tail erection at 75 mg/kg, ip; format: toxicity, organism-based; parameters: dose 75 mg/kg, route intraperitoneal; conditions: in vivo
Mus musculus [32] = assay: Neurotoxicity against Mus musculus MFI (mouse) assessed as epilepsy at 110 mg/kg, ip; format: toxicity, organism-based; parameters: dose 110 mg/kg, route intraperitoneal; conditions: in vivo
Mus musculus [33] = assay: Neurotoxicity against Mus musculus MFI (mouse) assessed as hair erection at 75 mg/kg, ip; format: toxicity, organism-based; parameters: dose 75 mg/kg, route intraperitoneal; conditions: in vivo
Mus musculus [34] = assay: Neurotoxicity against Mus musculus MFI (mouse) assessed as epilepsy at 40 mg/kg, ip; format: toxicity, organism-based; parameters: dose 40 mg/kg, route intraperitoneal; conditions: in vivo
Mus musculus [35] = assay: Neurotoxicity against Mus musculus MFI (mouse) assessed as effect on respiration at 40 mg/kg, ip; format: toxicity, organism-based; parameters: dose 40 mg/kg, route intraperitoneal; conditions: in vivo

With CC(CN1CCN(C)CC1)Oc1c(Br)cccc1Br.O=C(O)C(=O)O (racemic) the Activity (Mus musculus [1]) was “Toxic”, the Activity (Mus musculus [2]) was “Toxic” and the Activity (Mus musculus [3]) was “Toxic”. The Activity (Mus musculus [4]) was “Toxic”, the Activity (Mus musculus [5]) was “Toxic” and the Activity (Mus musculus [6]) was “Toxic”. For the same compound, the Activity (Mus musculus [7]) was “Toxic”, the Activity (Mus musculus [8]) was “Toxic” and the Activity (Mus musculus [9]) was “Toxic”. The Activity (Mus musculus [10]) was “Toxic”, the Activity (Mus musculus [11]) was “Toxic” and the Activity (Mus musculus [12]) was “Toxic”. For the same compound, the Activity (Mus musculus [13]) was “Toxic”, the inhibition in vivo at 110 mg/kg (Mus musculus [14]) was 100% and the Activity (Mus musculus [15]) was “Toxic”. For the same compound, the inhibition in vivo at 40 mg/kg (Mus musculus [16]) was 12.5%, the minimal effective dose (Mus musculus [17]) was 40 mg/kg and the Activity (Mus musculus [18]) was “Toxic”. The Activity (Mus musculus [19]) was “Toxic”, the Activity (Mus musculus [20]) was “Toxic” and the Activity (Mus musculus [21]) was “Toxic”. The Activity (Mus musculus [22]) was “Toxic”, the Activity (Mus musculus [23]) was “Toxic” and the inhibition in vivo at 75 mg/kg (Mus musculus [24]) was 37.5%. For the same compound, the Activity (Mus musculus [25]) was “Toxic”, the Activity (Mus musculus [26]) was “Toxic” and the Activity (Mus musculus [27]) was “Toxic”. The MTC (Mus musculus [28]) was 75 mg/kg, the Activity (Mus musculus [29]) was “Toxic” and the Activity (Mus musculus [30]) was “Toxic”. The Activity (Mus musculus [31]) was “Toxic”, the Activity (Mus musculus [32]) was “Toxic” and the Activity (Mus musculus [33]) was “Toxic”. The Activity (Mus musculus [34]) was “Toxic” and the Activity (Mus musculus [35]) was “Toxic”.
